Activity calls are given as the source filed them. The rule behind the calls is not given here.
Columns and labels:
SK-MEL-28 = assay: Antitumor activity against human SK-MEL-28 cells assessed as cell growth inhibition at 10 uM incubated for 48 hrs by sulforhodamine B assay; format: functional; conditions: read-out: GI
MOLT-4 = assay: Antitumor activity against human MOLT4 cells assessed as cell growth inhibition at 10 uM incubated for 48 hrs by sulforhodamine B assay; format: functional; conditions: read-out: GI
UACC-62 = assay: Antitumor activity against human UACC-62 cells assessed as cell growth inhibition at 10 uM incubated for 48 hrs by sulforhodamine B assay; format: functional; conditions: read-out: GI
SN12C = assay: Antitumor activity against human SN12C cells assessed as cell growth inhibition at 10 uM incubated for 48 hrs by sulforhodamine B assay; format: functional; conditions: read-out: GI
ACHN = assay: Antitumor activity against human ACHN cells assessed as cell growth inhibition at 10 uM incubated for 48 hrs by sulforhodamine B assay; format: functional; conditions: read-out: GI
IGROV-1 = assay: Antitumor activity against human IGROV1 cells assessed as cell growth inhibition at 10 uM incubated for 48 hrs by sulforhodamine B assay; format: functional; conditions: read-out: GI
HCT-116 = assay: Antitumor activity against human HCT116 cells assessed as cell growth inhibition at 10 uM incubated for 48 hrs by sulforhodamine B assay; format: functional; conditions: read-out: GI
KM12 = assay: Antitumor activity against human KM12 cells assessed as cell growth inhibition at 10 uM incubated for 48 hrs by sulforhodamine B assay; format: functional; conditions: read-out: GI
U-251 = assay: Antitumor activity against human U251 cells assessed as cell growth inhibition at 10 uM incubated for 48 hrs by sulforhodamine B assay; format: functional; conditions: read-out: GI
SR = assay: Antitumor activity against human SR cells assessed as cell growth inhibition at 10 uM incubated for 48 hrs by sulforhodamine B assay; format: functional; conditions: read-out: GI
PC-3 = assay: Antitumor activity against human PC-3 cells assessed as cell growth inhibition at 10 uM incubated for 48 hrs by sulforhodamine B assay; format: functional; conditions: read-out: GI
NCI-H226 = assay: Antitumor activity against human NCI-H226 assessed as cell growth inhibition at 10 uM incubated for 48 hrs by sulforhodamine B assay; format: functional; conditions: read-out: GI
OVCAR-4 = assay: Antitumor activity against human OVCAR-4 cells assessed as cell growth inhibition at 10 uM incubated for 48 hrs by sulforhodamine B assay; format: functional; conditions: read-out: GI
HOP-92 = assay: Antitumor activity against human HOP92 cells assessed as cell growth inhibition at 10 uM incubated for 48 hrs by sulforhodamine B assay; format: functional; conditions: read-out: GI
BT-549 = assay: Antitumor activity against human BT-549 cells assessed as cell growth inhibition at 10 uM incubated for 48 hrs by sulforhodamine B assay; format: functional; conditions: read-out: GI
A498 = assay: Cytotoxicity against human A498 cells assessed as cell death at 10 uM incubated for 48 hrs by sulforhodamine B assay; format: functional, cell-based
NCI-H522 = assay: Antitumor activity against human NCI-H522 cells assessed as cell growth inhibition at 10 uM incubated for 48 hrs by sulforhodamine B assay; format: functional; conditions: read-out: GI
MDA-MB-231 = assay: Antitumor activity against human MDA-MB-231/ATCC cells assessed as cell growth inhibition at 10 uM incubated for 48 hrs by sulforhodamine B assay; format: functional; conditions: read-out: GI
SF-295 = assay: Antitumor activity against human SF295 cells assessed as cell growth inhibition at 10 uM incubated for 48 hrs by sulforhodamine B assay; format: functional; conditions: read-out: GI
Hs-578T = assay: Cytotoxicity against human HS 578T cells assessed as cell death at 10 uM incubated for 48 hrs by sulforhodamine B assay; format: functional, cell-based
LOX IMVI = assay: Antitumor activity against human LOX IMVI cells assessed as cell growth inhibition at 10 uM incubated for 48 hrs by sulforhodamine B assay; format: functional; conditions: read-out: GI
HCC 2998 = assay: Cytotoxicity against human HCC2998 cells assessed as cell death at 10 uM incubated for 48 hrs by sulforhodamine B assay; format: functional, cell-based
OVCAR-3 = assay: Antitumor activity against human OVCAR-3 cells assessed as cell growth inhibition at 10 uM incubated for 48 hrs by sulforhodamine B assay; format: functional; conditions: read-out: GI
CCRF-CEM = assay: Antitumor activity against human CCRF-CEM cells assessed as cell growth inhibition at 10 uM incubated for 48 hrs by sulforhodamine B assay; format: functional; conditions: read-out: GI
Malme-3M = assay: Antitumor activity against human MALME-3M cells assessed as cell growth inhibition at 10 uM incubated for 48 hrs by sulforhodamine B assay; format: functional; conditions: read-out: GI
HL-60(TB) = assay: Antitumor activity against human HL-60(TB) cells assessed as cell growth inhibition at 10 uM incubated for 48 hrs by sulforhodamine B assay; format: functional; conditions: read-out: GI
SW-620 = assay: Antitumor activity against human SW620 cells assessed as cell growth inhibition at 10 uM incubated for 48 hrs by sulforhodamine B assay; conditions: SW-620, 48 h, read-out: GI
SF-268 = assay: Antitumor activity against human SF268 cells assessed as cell growth inhibition at 10 uM incubated for 48 hrs by sulforhodamine B assay; format: functional; conditions: read-out: GI
SK-OV-3 = assay: Antitumor activity against human SK-OV-3 cells assessed as cell growth inhibition at 10 uM incubated for 48 hrs by sulforhodamine B assay; format: functional; conditions: read-out: GI
SNB-75 = assay: Antitumor activity against human SNB-75 cells assessed as cell growth inhibition at 10 uM incubated for 48 hrs by sulforhodamine B assay; format: functional; conditions: read-out: GI
NCI/ADR-RES = assay: Antitumor activity against human NCI/ADR-RES cells assessed as cell growth inhibition at 10 uM incubated for 48 hrs by sulforhodamine B assay; format: functional; conditions: read-out: GI
RPMI-8226 = assay: Antitumor activity against human RPMI8226 cells assessed as cell growth inhibition at 10 uM incubated for 48 hrs by sulforhodamine B assay; format: functional; conditions: read-out: GI
HCT-15 = assay: Antitumor activity against human HCT15 cells assessed as cell growth inhibition at 10 uM incubated for 48 hrs by sulforhodamine B assay; format: functional; conditions: read-out: GI
UO-31 = assay: Antitumor activity against human UO-31 cells assessed as cell growth inhibition at 10 uM incubated for 48 hrs by sulforhodamine B assay; format: functional; conditions: read-out: GI
NCI-H23 = assay: Antitumor activity against human NCI-H23 cells assessed as cell growth inhibition at 10 uM incubated for 48 hrs by sulforhodamine B assay; format: functional; conditions: read-out: GI
K562 = assay: Antitumor activity against human K562 cells assessed as cell growth inhibition at 10 uM incubated for 48 hrs by sulforhodamine B assay; format: functional; conditions: read-out: GI
MCF7 = assay: Antitumor activity against human MCF7 cells assessed as cell growth inhibition at 10 uM incubated for 48 hrs by sulforhodamine B assay; format: functional; conditions: read-out: GI

O=c1[nH]cc(F)c(=O)[nH]1 [FLUOROURACIL]
inhibition of growth at 10 µM (SK-MEL-28): 19.5% | inhibition of growth at 10 µM (MOLT-4): 43.1% | inhibition of growth at 10 µM (UACC-62): 39.7% | inhibition of growth at 10 µM (SN12C): 54% | inhibition of growth at 10 µM (ACHN): 39.3% | inhibition of growth at 10 µM (IGROV-1): 51.2% | inhibition of growth at 10 µM (HCT-116): 17.8% | inhibition of growth at 10 µM (KM12): 40.7% | inhibition of growth at 10 µM (U-251): 50.3% | inhibition of growth at 10 µM (SR): 24.8% | inhibition of growth at 10 µM (PC-3): 58.2% | inhibition of growth at 10 µM (NCI-H226): 69.5% | inhibition of growth at 10 µM (OVCAR-4): 59.4% | inhibition of growth at 10 µM (HOP-92): 50.6% | inhibition of growth at 10 µM (BT-549): 37.8% | Activity (A498): Active | inhibition of growth at 10 µM (NCI-H522): 58% | inhibition of growth at 10 µM (MDA-MB-231): 78.1% | inhibition of growth at 10 µM (SF-295): 69% | Activity (Hs-578T): Active | inhibition of growth at 10 µM (LOX IMVI): 30.4% | Activity (HCC 2998): Active | inhibition of growth at 10 µM (OVCAR-3): 47.4% | inhibition of growth at 10 µM (CCRF-CEM): 57.1% | inhibition of growth at 10 µM (Malme-3M): 58.2% | inhibition of growth at 10 µM (HL-60(TB)): 47.9% | inhibition of growth at 10 µM (SW-620): < 10% | inhibition of growth at 10 µM (SF-268): 59% | inhibition of growth at 10 µM (SK-OV-3): 77.5% | inhibition of growth at 10 µM (SNB-75): 65.9% | inhibition of growth at 10 µM (NCI/ADR-RES): 47.6% | inhibition of growth at 10 µM (RPMI-8226): 41.4% | inhibition of growth at 10 µM (HCT-15): 26.5% | inhibition of growth at 10 µM (UO-31): 41.3% | inhibition of growth at 10 µM (NCI-H23): 39% | inhibition of growth at 10 µM (K562): 42.3% | inhibition of growth at 10 µM (MCF7): 11.5%

Source: ChEMBL document CHEMBL4665624, “Synthesis of 5-(4-(1H-phenanthro[9,10-d]imidazol-2-yl)benzylidene)thiazolidine-2,4-dione as promising DNA and serum albumin-binding agents and evaluation of antitumor activity” (Eur J Med Chem, 2019)
